The target of one assay is T1, human MC3 receptors (Homo sapiens, UniProt P41968).
T1 construct: stably transfected with full length cDNA encoding human MC1 or MC3 receptors; expressed in transfected cells
Kind of assay: In vitro agonist potency (EC50) at melanocortin receptor type 3, cAMP in recombinant cell line. Format: cell-based. On the procedure:
Measurement of In Vitro Agonist Potency (EC50) of Compounds Against Melanocortin Receptors Type 1 and 3 (MC1 and MC3).
Activation of melanocortin (MC) receptors by agonists results in activation of intracellular adenylate cyclase enzymes that synthesise the second messenger signalling molecule, adenosine 3′,5′-cyclic monophosphate (cAMP). Changes in cAMP levels following treatment of recombinant MC1 and MC3 cell lines with test compound were measured and an MC1 and MC3 potency estimate (EC50) calculated as follows: […]
Human embryonic kidney (HEK) or Chinese hamster ovary cell lines stably transfected with full length cDNA encoding human MC1 or MC3 receptors, respectively, were established using standard molecular biology methods. Test compounds were dissolved in dimethyl sulfoxide (DMSO) at 4 mM. 11 point half log unit increment dilution series of test compound, typically starting at 50 uM were prepared in a buffer comprised of phosphate buffered saline (PBS), 2.5% DMSO and 0.05% pluronic F-127 surfactant. Freshly cultured cells at 80-90% confluence were harvested and re-suspended in Dulbecco's Modified Eagle's Medium (DMEM). Cells (10,000 for MC3, 20,000 for MC1) were added to the test compound dilution series in a 384 well assay plate and incubated for 1 hour at 37° C. The relative cAMP concentration in each well was then measured using a β-galactosidase enzyme fragment complementation method purchased in kit form as the Discoverx cAMP II kit from GE Healthcare/Amersham Biosciences UK. In the case of MC1,3-Isobutyl-1-methylxanthine (IBMX) at a concentration of 750 μM was included in DMEM as the cells were re-suspended for assay. […] Sigmoidal curves were fitted to plots of log10 inhibitor concentration vs percent effect using a custom made software application called SIGHTS and EC50 estimates determined by the software as the concentration of test compound giving an effect half way between the bottom and top asymptotes of the sigmoidal dose response curve. Each experiment included an EC50 determination for alpha melanocyte stimulating hormone, which was used as a standard to track assay consistency and allow fair comparison between EC50 estimates obtained in different experiments.

A further assay has as its target MC4 receptor (Homo sapiens, UniProt P32245). Kind of assay: MC4 EC50 functional potency (protocol E of US2005/0176772 / WO 2005/077935). The format is cell-based. On the procedure: The compounds of formula (I) of the present invention have utility as MCR4 agonists in the treatment of various disease states.
MC5 and MC4 EC50 activity was determined as described by assay protocols D and E, respectively, in US2005/0176772 (pages 28-30).

A further assay concerns the target T2, MC4 receptor (MC4R) (Homo sapiens, UniProt P32245).
T2 construct: expressed in transfected cells; host or cells: CHO-CRE MC4R cells (membranes)
Briefly: Nle4, D-Phe7-α-MSH inhibition at the MC4 receptor (competition binding, SPA, CHO-CRE MC4R membranes). Summed up: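 Competition binding by SPA used CHO-CRE MC4R membranes on WGA beads (0.15 ug membrane/well) with 0.06 nM [125I] Nle4, D-Phe7-α-MSH and 11 half-log competitor concentrations in duplicate. Buffer was 25 mM HEPES pH 7 with MgCl2, CaCl2, Pluronic F68 and protease inhibitors; incubation was 12 hours at room temperature. Non-specific binding was set with 100 nM SHU9119, and Ki was calculated.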

From patent US8592403B2, “Diazepine and diazocane compounds as MC4 agonists” (Pfizer Limited, priority 2008, dated 2013) come the findings set out here.

A word on the EC50: it is the concentration that produces a half-maximal response. As a reminder, the Ki is a measure of affinity in units of concentration, obtained from inhibition or displacement.

T1 sequence (P41968 whole entry): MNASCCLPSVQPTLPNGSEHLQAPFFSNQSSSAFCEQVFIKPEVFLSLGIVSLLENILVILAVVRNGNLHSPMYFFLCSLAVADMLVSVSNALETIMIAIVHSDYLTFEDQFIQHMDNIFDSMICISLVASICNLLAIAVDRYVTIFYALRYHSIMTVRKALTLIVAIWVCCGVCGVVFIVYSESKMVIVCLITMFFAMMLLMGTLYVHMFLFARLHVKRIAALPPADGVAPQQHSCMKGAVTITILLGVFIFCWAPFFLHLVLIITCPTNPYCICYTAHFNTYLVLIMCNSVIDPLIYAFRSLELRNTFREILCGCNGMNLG
T2 sequence (P32245 whole entry): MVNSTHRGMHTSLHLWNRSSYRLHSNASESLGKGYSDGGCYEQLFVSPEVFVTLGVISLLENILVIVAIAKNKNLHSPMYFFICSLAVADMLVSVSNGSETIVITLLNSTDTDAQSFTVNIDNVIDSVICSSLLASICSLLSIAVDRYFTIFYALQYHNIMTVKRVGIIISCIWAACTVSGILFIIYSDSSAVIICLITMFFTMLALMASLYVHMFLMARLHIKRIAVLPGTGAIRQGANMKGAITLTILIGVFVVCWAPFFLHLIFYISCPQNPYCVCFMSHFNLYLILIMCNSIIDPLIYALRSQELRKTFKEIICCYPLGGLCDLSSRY
Chain of MC4 receptor (P32245 whole entry): as above

As for `CNC(=O)N1CCN(C(=O)[C@@H]2CN(c3cccnn3)C[C@H]2c2ccc(F)cc2F)CCCC1c1ccccc1` (mixture of isomers) [Example 73], the figures for the EC50 at human MC3 receptors and on MC4 receptor were 544 nM and 12.2 nM, respectively. This compound also had an inhibition constant (Ki) on MC4 receptor (MC4R) of 225 nM.

Regarding `CS(=O)(=O)N1CCN(C(=O)[C@@H]2CN(c3ccc(C#N)nn3)C[C@H]2c2ccc(F)cc2F)CCCC1c1ccc(Cl)cc1` (mixture of isomers) [Example 76], the concentration for a half-maximal effect (EC50) amounted to 604 nM at human MC3 receptors and 50 nM at MC4 receptor. This compound yielded an inhibition constant (Ki) on MC4 receptor (MC4R) of 344 nM.

Regarding `CS(=O)(=O)N1CCN(C(=O)[C@@H]2CN(c3ccc(=O)[nH]n3)C[C@H]2c2ccc(F)cc2F)CCCC1c1ccc(Cl)cc1` (mixture of isomers) [Example 79], the values for the concentration giving a half-maximal response (EC50) at human MC3 receptors and on MC4 receptor were 1820 nM and 17.1 nM, respectively. The same compound had a Ki on MC4 receptor (MC4R) of 107 nM.

Take `CCCC(=O)N1CCN(C(=O)[C@@H]2CN(c3cccnn3)C[C@H]2c2ccc(F)cc2F)CCCC1c1ccccc1` (mixture of isomers) [Example 101]: the half-maximal effective concentration (EC50) came out at 114 nM on human MC3 receptors and 7.12 nM at MC4 receptor. Besides, on MC4 receptor (MC4R), the affinity, expressed as Ki, was 77.9 nM.

For `CC(=O)N1CCN(C(=O)[C@@H]2CN(c3cccnn3)C[C@H]2c2ccc(F)cc2F)CCCC1c1ccccc1` (mixture of isomers) [Example 103], the EC50 was 332 nM on human MC3 receptors and 9.79 nM on MC4 receptor. On MC4 receptor (MC4R), the affinity, expressed as Ki, was 316 nM.

Regarding `COc1ccc([C@@H]2CN(c3ccc(=O)n(C)n3)C[C@H]2C(=O)N2CCCC(c3ccc(Cl)cc3)N(S(C)(=O)=O)CC2)c(F)c1` (single isomer, unassigned) [Example 117], the figures for the EC50 at human MC3 receptors and at MC4 receptor were 8360 nM and 34.9 nM, respectively. At MC4 receptor (MC4R), this compound came in with a Ki of 33.6 nM.

For the compound `CC(=O)N1CCN(C(=O)[C@@H]2CN(c3ccc4nncn4n3)C[C@H]2c2ccc(Cl)cn2)CCC[C@H]1c1ccc(Cl)cc1` [Example 6, 6-[(3S,4S)-3-{[4-acetyl-5S-(4-chlorophenyl)-1,4-diazocan-1-yl]carbonyl}-4-(5-chloropyridin-2-yl)pyrrolidin-1-yl][1,2,4]triazolo[4,3-b]pyridazine], the figures for the EC50 on human MC3 receptors and at MC4 receptor were 300 nM and 1.12 nM, respectively. For the same compound, at MC4 receptor (MC4R), the affinity, expressed as Ki, was 28.4 nM.

For the compound `CCC(=O)N1CCN(C(=O)[C@@H]2CN(C(C)(C)C)C[C@H]2c2ccc(F)cc2F)CCC[C@H]1c1ccc(Cl)cc1` [Example 10], the EC50 is 4190 nM on human MC3 receptors and 17.3 nM at MC4 receptor. At MC4 receptor (MC4R), this compound came in with a Ki of 300 nM.

In the case of `CC(C)C(=O)N1CCN(C(=O)[C@@H]2CN(C(C)(C)C)C[C@H]2c2ccc(F)cc2F)CCC[C@H]1c1ccc(Cl)cc1` [Example 11], the EC50 at human MC3 receptors was 3390 nM; at MC4 receptor it was 6.73 nM. The compound further yielded a Ki at MC4 receptor (MC4R) of 200 nM.

`CC(C)(C)N1C[C@@H](C(=O)N2CCC[C@@H](c3ccc(Cl)cc3)N(C(=O)C3CCC3)CC2)[C@H](c2ccc(F)cc2F)C1` [Example 14]: the values for the EC50 on human MC3 receptors and at MC4 receptor were 8590 nM and 13.4 nM, respectively. Besides, the affinity at MC4 receptor (MC4R) corresponds to a Ki of 378 nM.

`CC(C)(C)C(=O)N1CCN(C(=O)[C@@H]2CN(C(C)(C)C)C[C@H]2c2ccc(F)cc2F)CCC[C@H]1c1ccc(Cl)cc1` [Example 15]: the concentration giving a half-maximal response (EC50) came out at 3180 nM at human MC3 receptors and 10.6 nM on MC4 receptor. Besides, the inhibitory constant (Ki) at MC4 receptor (MC4R) amounted to 144 nM.

Turning to `CC(C)C(=O)N1CCN(C(=O)[C@@H]2CN(C(C)(C)C)C[C@H]2c2ccc(Cl)cn2)CCC[C@H]1c1ccc(Cl)cc1` [Example 20, 1-{[(3S,4S)-1-tert-butyl-4-(5-chloropyridin-2-yl)pyrrolidin-3-yl]carbonyl}-5S-(4-chlorophenyl)-4-isobutyryl-1,4-diazocane], the EC50 turned out to be 1660 nM on human MC3 receptors and 5.46 nM at MC4 receptor. At MC4 receptor (MC4R), this compound gave a Ki of 68.6 nM.

For `COC(=O)N1CCN(C(=O)[C@@H]2CN(c3ccc(=O)n(C)n3)C[C@H]2c2ccc(F)cc2F)CCC[C@@H]1c1ccc(Cl)cc1` [Example 56], the values for the concentration for a half-maximal effect (EC50) at human MC3 receptors and at MC4 receptor were 1220 nM and 2.99 nM, respectively. On MC4 receptor (MC4R), this compound registered an inhibition constant Ki of 71.1 nM.

Take `COC(=O)N1CCN(C(=O)[C@@H]2CN(c3ccc(=O)n(C)n3)C[C@H]2c2ccc(F)cc2F)CCC[C@H]1c1ccc(Cl)cc1` [Example 66, methyl (8S-4-chlorophenyl)-4-{[(3S,4R)-4-(2,4-difluorophenyl)-1-(1-methyl-6-oxo-1,6-dihydropyridazin-3-yl)pyrrolidin-3-yl]carbonyl}-1,4-diazocane-1-carboxylate]: the EC50 is 1220 nM on human MC3 receptors and 2.99 nM at MC4 receptor. For the same compound, affinity at MC4 receptor (MC4R) was put at a Ki of 71.1 nM.

On to `COc1ccc([C@@H]2CN(c3ccc(C#N)nn3)C[C@H]2C(=O)N2CCC[C@@H](c3ccc(Cl)cc3)N(C(C)=O)CC2)c(F)c1` [Example 67], for which the EC50 was determined as 177 nM on human MC3 receptors and 7.73 nM on MC4 receptor. The inhibitory constant (Ki) on MC4 receptor (MC4R) came to 58.9 nM.

For `COc1ccc([C@@H]2CN(c3ccc(=O)[nH]n3)C[C@H]2C(=O)N2CCC[C@@H](c3ccc(Cl)cc3)N(C(C)=O)CC2)c(F)c1` [Example 68, 6-[(3S,4R)-3-{[4-acetyl-5S-(4-chlorophenyl)-1,4-diazocan-1-yl]carbonyl}-4-(2-fluoro-4-methoxyphenyl)pyrrolidin-1-yl]pyridazin-3(2H)-one], the EC50 came to 728 nM on human MC3 receptors and 4.3 nM at MC4 receptor. Also, the inhibition constant (Ki) on MC4 receptor (MC4R) is 21.7 nM.

Take `COc1ccc([C@@H]2CN(C(C)(C)C)C[C@H]2C(=O)N2CCC[C@@H](c3ccc(Cl)cc3)N(C(C)=O)CC2)c(F)c1` [Example 70]: the figures for the EC50 on human MC3 receptors and on MC4 receptor were 4040 nM and 20.6 nM, respectively. On MC4 receptor (MC4R), this compound yielded a Ki of 686 nM.

Consider `CC(=O)N1CCN(C(=O)[C@@H]2CN(c3ccc(C#N)nn3)C[C@H]2c2ccc(Cl)cn2)CCC[C@H]1c1ccc(Cl)cc1` [Example 72], for which the EC50 came out at 88.6 nM on human MC3 receptors and 26.1 nM on MC4 receptor. At MC4 receptor (MC4R), this compound showed a Ki of 71.4 nM.

Turning to `CS(=O)(=O)N1CCN(C(=O)C2CN(c3ccc(=O)[nH]n3)CC2c2ccc(F)cc2F)CCCC1c1ccc(F)cc1` (stereo not drawn) [Example 78], the concentration giving a half-maximal response (EC50) came to 3320 nM on human MC3 receptors and 40.3 nM at MC4 receptor. At MC4 receptor (MC4R), this compound had a Ki of 303 nM.

For `COC(=O)N1CCN(C(=O)[C@@H]2CN(c3ccc(=O)[nH]n3)C[C@H]2c2ccc(OC)cc2F)CCC[C@@H]1c1ccc(Cl)cc1` [Example 90, methyl 8R-(4-chlorophenyl)-4-{[(3S,4R)-4-(2-fluoro-4-methoxyphenyl)-1-(6-oxo-1,6-dihydropyridazin-3-yl)pyrrolidin-3-yl]carbonyl}-1,4-diazocane-1-carboxylate], the EC50 on human MC3 receptors stood at 456 nM; on MC4 receptor, 1.83 nM. Moreover, the inhibition constant (Ki) on MC4 receptor (MC4R) turned out to be 12 nM.

Consider `COC(=O)N1CCN(C(=O)[C@@H]2CN(C(C)(C)C)C[C@H]2c2ccc(OC)cc2F)CCCC1c1ccc(Cl)cc1` (stereo partly drawn) [Example 91], for which the EC50 at human MC3 receptors was 7380 nM; on MC4 receptor, 20.2 nM. For the same compound, the affinity at MC4 receptor (MC4R) corresponds to a Ki of 383 nM.

`COC(=O)N1CCN(C(=O)[C@@H]2CN(c3ccc(=O)n(C)n3)C[C@H]2c2ccc(OC)cc2F)CCC[C@H]1c1ccc(Cl)cc1` [Example 118]: the EC50 is 8200 nM on human MC3 receptors and 1.83 nM on MC4 receptor. The same compound gave a Ki on MC4 receptor (MC4R) of 24.7 nM.

As to `COC(=O)N1CCN(C(=O)[C@@H]2CN(c3ccc(=O)n(C)n3)C[C@H]2c2ccc(OC)cc2F)CCC[C@@H]1c1ccc(Cl)cc1` [Example 119, methyl 8R-(4-chlorophenyl)-4-{[(3S,4R)-4-(2-fluoro-4-methoxyphenyl)-1-(1-methyl-6-oxo-1,6-dihydropyridazin-3-yl)pyrrolidin-3-yl]carbonyl}-1,4-diazocane-1-carboxylate], the concentration giving a half-maximal response (EC50) on human MC3 receptors stood at 11200 nM; on MC4 receptor, 8.53 nM. Besides, affinity at MC4 receptor (MC4R) was put at a Ki of 22.3 nM.
